Measurements taken from US9365534B2, “Arylated camphenes, processes for their preparation and uses thereof” (Yissum Research Development Company of the Hebrew …, priority 2009, dated 2016).
Where “and” joins values, the source holds several entries; their conditions need not be identical. Identical values can stand only once.

Tests used:
human CB2 receptor = human CB2 receptor (Homo sapiens (Human), UniProt P34972); experiment: Membrane [35S]GTPγS binding assay; assay type: biochemical
Procedure: Human CB2 expressing CHO-K1 membranes (5 μg per incubation mixture) were diluted in 50 mM Tris-HCl (pH 7.5) and 0.5 mM EDTA and added to HU compounds in a pre-mixed incubation cocktail. Final incubation concentrations were 55 mM Tris-HCl (pH 7.4), 1 mM EDTA, 100 mM NaCl, 5 mM MgCl2, 0.5% BSA, 50 μM GDP, 0.2 nM [^35S]GTPγS (PerkinElmer) with varied HU compound concentration and 5 μg membrane. Incubations were continued for 60 minutes at 30° C. in a shaking water bath. Assays were terminated by addition of 2 ml ice cold wash buffer (50 mM Tris-HCl, pH 7.5 and 5 mM MgCl2) and filtration through pre-soaked GF/C filters (Whatman), followed by two further washes. adioactivity was determined as described for competition binding assays.
Data was analyzed using the Prism 4.02 programme (GraphPad Software, San Deigo, Calif., USA). IC50 and EC50 values, as determined from sigmoidal curves, were generated from drug concentrations plotted in log scale. […] It is possible to display data as an average, plus or minus the standard error of the mean in log form, however, this is not easily interpreted or compared to other values. It was therefore elected to calculate the 95% confidence interval for the mean value in log form and then convert the lower limit, mean and upper limit into the molar (linear) scale. […] Two-tailed t-tests for statistical analysis between enantiomeric pairs of compounds were performed for CB2 Ki values. The Pearson value, an indication of linearity, was determined for Ki and IC50 or EC50 results obtained for CB2 receptors in binding, cAMP or GTPγS experiments, respectively.

closed head injury (CHI) = experiment: Closed head injury (CHI) model, neurological severity score, C57Bl mice; assay type: in vivo
Procedure: The study was conducted according to the guidelines of the Institutional Animal Care Committee of the Hebrew University. Male Sabra mice weighing 35 to 50 g were used in all experiments. Animals were kept under controlled light conditions with a 12 h/12 h light/dark cycle. Experimental closed head injury (CHI) was induced using a modified weight drop device developed in our laboratory as described previously (Chen et al., 1996). At 1 h after CHI, the functional status of the mice was evaluated according to a set of 10 neurobehavioral tasks, namely the neurological severity score (NSS). This score is based on the ability of the mice to perform 10 different tasks (Beni-Adani et al., 2001) that evaluate their motor ability, balance, and alertness. One point is given for failing to perform a task. The severity of injury is indicated by the initial NSS, which is evaluated 1 h after CHI and is also a reliable predictor of the later outcome. A score of 10 reflects maximal neurologic impairment, and a decrease of NSS during the recovery period indicates partial recovery of function.
Data was analyzed using the Prism 4.02 programme (GraphPad Software, San Deigo, Calif., USA). The data are expressed as mean±SEM and statistical significance was assessed with one way analysis of variance (ANOVA) followed by a Dunnett's post-hoc analysis for TNF-α levels. […]

TNF-α = TNF-α production in brain following CHI (ELISA); assay type: in vivo, mice; conditions: HU-914 5 mg/kg i.p. 1 h after CHI, sacrificed 4 hrs after CHI
Procedure: TNF-α activity can be induced by ischemic and traumatic brain injury starting at 1-2 h and reaching the peak at 4 h following CHI. (Shohami et al., 1997). The next step was to investigate the effect of HU-914 on TNF-α production after CHI. Three groups of mice (n=5-6) were subjected to CHI: • Group 1 (Control): Sham controls received anesthesia and skin incision only. • Group 2: Vehicle only (ethanol:cremophor:saline at ratio of 1:1:18), i.p. 1 h after CHI. • Group 3: HU-914, 5 mg/kg, dissolved in vehicle (1:1:18 ethanol:cremophor:saline), i.p. 1 h after CHI.
The animals were sacrificed 4 hrs after CHI by decapitation. Brains were rapidly removed and dissected into ipsilateral and contralateral cortical and hippocampal segments that were frozen in liquid nitrogen and kept at […]. […] Following sonication on ice for 45 s and centrifugation at 12,000 rpm for 20 min, protein concentrations in the supernatants were determined using the Bradford method (Bio-Rad Laboratories, Munich, Germany). Supernatants were analyzed by enzyme-linked immunosorbent assay (ELISA) for production of TNF-α, using cytokine specific kit from R&D Systems (Minneapolis, Minn.). […] TNF-α elevation was not detected in the right cortex or hippocampus (FIG. 8).

SMILES | EC50 (human CB2 receptor) [nM] | Emax (human CB2 receptor; read-out: [35S]GTPγS Emax) [%] | recovery, Neurological Severity Score (NSS) (closed head injury (CHI); HU-914 2.5 and 5 mg/kg i.p., day 14 post injury, vs vehicle or 10 mg/kg) | most effective doses (NSS recovery) (closed head injury (CHI); i.p. 1 h after CHI, followed 14 days) | TNF-α level, left cortex (TNF-α) | TNF-α production, hippocampus of the injured left hemisphere (TNF-α)
CCCCCCC(C)(C)c1cc(OC)c(C2=C[C@H]3CC[C@]2(CO)C3(C)C)c(OC)c1 [HU-910, (1S,4R)-(2-(2,6-dimethoxy-4-(2-methyloctan-2-yl)phenyl)-7,7-dimethylbicyclo[2.2.1]hept-2-en-1-yl)methanol] | 26.4 | 121 ± 7 |  |  |  | 
CCCCCCC(C)(C)c1cc(OC)c(C2=C[C@H]3CC[C@]2(C(=O)O)C3(C)C)c(OC)c1 [HU-914, (1S,4R)-2-(2,6-dimethoxy-4-(2-methyloctan-2-yl)phenyl)-7,7-dimethylbicyclo[2.2.1]hept-2-ene-1-carboxylic acid] |  |  | significant greater recovery | 2.5 mg/kg and 5 mg/kg | did not affect the cytokine's level | inhibited TNF-α production
